Key:
[1] = biological target: ERα (Homo sapiens (Human), UniProt P03372); assay: PRα induction assay in MCF7 cells; assay type: cell-based; settings: MCF7 breast cancer cells
Description: The purpose of the following PRα induction assay is to determine whether a test compound has agonistic activity against ERα receptor (an agonist would be expected to activate the receptor).
Culture MCF7 (purchased from ATCC HTB-22) in DMEM media supplemented with 10% FBS, 0.01 mg/mL human insulin 1 and 1% penicillin/streptomycin antibiotics and plate the cells (prior to becoming 70% confluent) in 384-well flat-bottom plates at a density of 4,000 cells per well in 20 μL volume in DMEM phenol red free media containing 10% FBS (charcoal stripped). Incubate the cells overnight in a cell culture incubator (5% CO2, 95% relative humidity at 37° C.) and allow the cells to attach to the plate. The following day, dose the cells with test compound. Use an Echo 555 acoustic dispenser to prepare compound serial dilutions (1:3) in a range from 6 μM to 0.0003 μM. Dose the cells with the addition of the test compound (5 μL) from the serial dilution plate to the cell plate producing a final DMSO concentration of 0.2% with a final concentration of the test compound dose range between 2 and 0.0001 μM. For the maximum point use media containing 0.2% of DMSO and for the minimum point, use fulvestrant diluted at 2 μM final concentrations in the growth media containing 0.2% DMSO. After dosing with the test compound, incubate the cell plates at 37° C. and 5% CO2 for 24 hours. Fix the cells by adding 14% para-formaldehyde (10 μL) for 30 minutes at room temperature. Wash cells once with PBS (20 μL) and incubate with PBS (20 μL) containing 0.5% (v/v) TWEEN® 20 for 1 hour. Wash cells twice with PBS (20 μL) containing 0.05% TWEEN® 20 and block with 3% BSA in PBS containing 0.05% TWEEN® 20 and 0.1% TRITON™ X-100 (20 μL/well) for 1 hour at room temperature. […]
The following day, wash cells with PBS 0.05% TWEEN® 20 (2×20 μL) and incubate with secondary antibody (20 μL/well) (1:1000 dilution, Goat anti-rabbit IgM ALEXA FLUOR™ 488) in PBS 1% BSA for 105 minutes at room temperature. […] Scan plates with ACUMEN EXPLORER™ [Laser-scanning fluorescence microplate cytometer manufactured by TTP LABTECH LTD] to measure PRα. […]

[2] = tested on: MCF7 (Breast Cancer Xenograft); assay: In vivo tumor growth inhibition, MCF7 xenograft; set-up: species or system mice; settings: 28 days
Description: The purpose of the following xenograft tumor inhibition assay is to measure reduction in tumor volume in response to test compound administration.

[3] = tested on: MCF7 ER-positive breast cancer model; assay: In vivo combination studies in MCF7 ER-positive breast cancer xenograft model; set-up: species or system mice; settings: for Difference (Treatment 1 − Treatment 2): Treatment 1 = Vehicle, log10 tumor volume
Description: Otherwise, the statistical conclusion is additive.

Sequence of ERα (P03372 whole entry): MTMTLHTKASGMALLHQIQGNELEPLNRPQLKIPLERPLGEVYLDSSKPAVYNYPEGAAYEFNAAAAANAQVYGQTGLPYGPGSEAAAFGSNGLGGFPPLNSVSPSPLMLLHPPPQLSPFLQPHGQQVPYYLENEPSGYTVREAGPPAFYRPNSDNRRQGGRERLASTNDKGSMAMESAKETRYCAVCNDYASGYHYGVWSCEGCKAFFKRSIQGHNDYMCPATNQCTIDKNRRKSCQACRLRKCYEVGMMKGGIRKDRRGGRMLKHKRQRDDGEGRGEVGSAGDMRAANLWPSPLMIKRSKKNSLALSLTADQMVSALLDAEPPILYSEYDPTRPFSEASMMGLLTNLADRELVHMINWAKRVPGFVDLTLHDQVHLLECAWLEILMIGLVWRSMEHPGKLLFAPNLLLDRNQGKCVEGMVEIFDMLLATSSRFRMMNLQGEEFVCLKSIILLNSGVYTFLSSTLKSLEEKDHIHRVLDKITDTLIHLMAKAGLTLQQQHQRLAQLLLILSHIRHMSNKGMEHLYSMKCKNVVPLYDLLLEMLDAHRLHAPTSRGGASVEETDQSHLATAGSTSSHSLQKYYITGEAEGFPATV

Oc1ccc2c3c(cnc2c1)-c1ccc(C(F)(F)F)cc1OC3c1ccc(OCCN2CC(CF)C2)cc1 (single isomer, unassigned) [Example 1B, 5-(4-{2-[3-(Fluoromethyl)azetidin-1-yl]ethoxy}phenyl)-8-(trifluoromethyl)-5H-[1]benzopyrano[4,3-c]quinolin-2-ol]
agonistic activity [1]: no significant agonistic activity | Delta T/C % or Regression % ([2]; 3 mg/kg oral gavage QD): −26% | Delta T/C % or Regression % ([2]; 10 mg/kg oral gavage QD): −46% | Delta T/C % or Regression % ([2]; 30 mg/kg oral gavage QD): −36% | Delta T/C % or % Regression ([3]; Example 1B 10 mpk QD × 42, Compound A 7.5 mpk BID × 42, PO (Table 18)): −32% | Delta T/C % or % Regression ([3]; Example 1B 10 mpk, Abemaciclib 50 mpk, QD × 42, PO (Table 16)): −32% | Difference (Treatment 1 − Treatment 2) ([3]; Example 1B 10 mpk QD × 42, Compound A 7.5 mpk BID × 42, PO): 0.479 | Difference (Treatment 1 − Treatment 2) ([3]; Example 1B 10 mpk, Abemaciclib 50 mpk, QD × 42, PO): 0.628

Reference: patent publication US10654866B2, “Selective estrogen receptor degraders” (Eli Lilly and Company, priority 2018, dated 2020)
